The subject of data set [1] is A2780 human tumor cell line. Briefly: MTT growth inhibition, A2780 cells, 72 hours. The conditions noted are these: read-out: IC50 values A2780, prodrug/POPC/2kPS3k (1:1:2) formulations, ± SD.
Data set [2] deals with HT29 human colon carcinoma cells. The conditions noted are these: Q4Dx6, nanoparticle formulations. How it is done: Female athymic nude mice (7-8 weeks old) were inoculated subcutaneously with 100 μl HT29 human colon carcinoma cells (2×10^6 cells) using a 26 gauge needle. Mice were randomly grouped (n=6/group) with a mean tumor size between 80 and 120 mg prior to first treatment. […] Subsequent injections were made according to the designated schedule. Tumor length and width measurements, body weight and in life observations were recorded 2-3 times per week. Tumor weight was calculated according to the formula (L×W^2)/2.
The relative efficacies of nanoparticle formulations of 1, 2, 4, 5, 6 and 7 were determined in the HT29 model using a 36 μmol/kg dose on a Q4Dx6 schedule (FIG. 3). Saline was used as a negative control.
The activity of 7 in POPC/2.5kPS3k nanoparticle formulations relative to paclitaxel was determined by comparing the efficacy of doses ranging from 0.25 to 3 mole equivalents of paclitaxel (FIG. 4) in the HT29 tumor model. Taxol® dosed at 23 μmol/kg on a Q2Dx5 schedule was used as a positive control.
The tumor growth data was analyzed by two methods to determine what dose of 7 would be equivalent to the Taxol® positive control.

The subject of data set [3] is MCF-7 human tumor cell line. The conditions noted are these: read-out: IC50 values MCF-7; prodrug/POPC/2kPS3k (1:1:2) formulations; 72 hours; MTT; ± SD.
For data set [4] the following is noted: co-lipid POPC, prodrug/co-lipid/2.5kPS3k (1:1:2), vortexing 30 seconds. As for the experimental part:
The physical stability of formulations was investigated by examining changes in particle size after vortexing prodrug/co-lipid/2.5kPS3k (1:1:2) nanoparticles in water, 150 mM saline or 300 mM sucrose (Table 1). […] The increase in particle size was monitored by using dynamic light scattering to measure the Z average (the intensity weighted mean size of the particle distribution) value for samples before and after vigorous vortexing. The change in the Zave value was used as surrogate readout for the formation of aggregates or precipitates resulting from mechanical instability, where a higher value for ΔZave indicated a higher level of aggregation or precipitation (Table 1).

The conditions of data set [5]: mouse, in vivo.
Experimental: Athymic nude mice (n=3/timepoint) were injected iv with test samples (10 μl/g body weight, to a maximum of 250 μl). Blood was collected at the designated time point by cardiac puncture and placed into EDTA coated microtainer tubes (BD Biosciences). The tubes were centrifuged at 2800 rpm for 10 minutes. Plasma was recovered and 50 μl aliquots analyzed by HPLC for drug content. Samples containing ^3H—CHE (50 μl) were diluted with PicoFluor40™ scintillation fluid (Packard) and counted on a Beckman-Coulter LS 6500 Multipurpose scintillation counter. The total drug (counts) per mouse in the blood compartment was calculated assuming a plasma volume of 0.04125 mL per gram of body weight.
Elimination studies tracking both the prodrug and the particle were conducted to obtain a more accurate description of the partitioning behavior of the prodrugs in vivo (FIG. 1). Prodrug elimination was followed by HPLC, while particle elimination rates were determined by labeling nanoparticles with tritiated cholesterylhexadecyl ether (3H—CHE).
Formulations comprised of 1/VES/2kPS3k (1:1:2) and 2/VES/2kPS3k (1:1:2) were labeled with trace amounts of ^3H—CHE and plasma levels of both the label and prodrug were monitored in Foxn1^nu mice (FIG. 1, Panel A).
Effect of prodrug partitioning on plasma drug elimination was determined. The prodrug panel was screened using prodrug/POPC/2kPS3k (1:1:2) nanoparticles in Foxn1^nu mice to determine elimination rates for the different prodrug conjugates (FIG. 2). […] Conjugates were formulated at a concentration of 0.7 mg/mL.
In order to estimate the partitioning half-life for each prodrug, it was assumed that 1 tracked the particle elimination rate based on the results discussed above. The elimination of all other prodrugs were then fitted to four parameter double exponential decay curves and normalized against 1.
The conditions of data set [6]: prodrug/POPC/2.5kPS3k (1:1:2) nanoparticles in water; volume weighted average. How it is done: The prodrug, co-lipid and stabilizer polymers (typically on a 1:1:2 w/w basis) were dissolved in ethanol/THF (4:1) at a concentration of 40 mg/ml. The solvent was rapidly diluted with water using a four port CVIJ mixer^13, 14 with flow rates set at […] (solvent/water/water/water). Flow rates were controlled using Harvard Apparatus PHD2000 syringe pumps. The resultant solution was then dialyzed against water to remove residual solvent. […] When higher concentrations were required the dialyzed solution was diluted with equi-volumes of 600 mM sucrose and then concentrated using a 100 kD, 0.5 mm lumen, 60 cm path length MidGee hoop cartridge (GE Healthcare Life Sciences, Piscataway, N.J.) with a peristaltic pump. Particle size was determined using a Malvern Zetasizer Nano-ZS particle sizer and reported as volume weighted data.
Formulations were composed of a prodrug, a co-lipid and an amphipathic stabilizer in a weight ratio of 1:1:2, respectively at a concentration of 40 mg per mL of solvent. […] Poly(ethylene glycol)-b-polystyrene (2kPS3k or 2.5kPS3k) was used as the amphipathic stabilizer. Other stabilizers may also be used.

For the compound “2′-O-(4″-O-tocopherylsuccinoyl)-paclitaxel [Prodrug 1]”, the results for the IC50 in data set [1] and in data set [3] were 192 nM and 158 ± 72 nM, respectively. For the same compound, the “therapeutic activity in HT29 model” value in data set [2] (34 μmol/kg dose) was “no evidence of any therapeutic activity”.

As to `CC(=O)OC1C(=O)C2(C)C(O)CC3OCC3(OC(C)=O)C2C(OC(=O)c2ccccc2)C2(O)CC(OC(=O)C(OC(=O)COCC(=O)Oc3c(C)c(C)c4c(c3C)CCC(C)(CCCC(C)CCCC(C)CCCC(C)C)O4)C(NC(=O)c3ccccc3)c3ccccc3)C(C)=C1C2(C)C` (stereo not drawn) [Prodrug 3, 2′-O-(5″-O-tocopheryldiglycoloyl)-paclitaxel], the “ΔZave 150 mM saline” value in data set [4] is listed as 55 nm. Further, the ΔZave water in data set [4] was found to be 125 nm. Moreover, the IC50 in data set [1] was determined as 25.3 nM; in data set [3], 13.4 ± 2.4 nM. The partitioning half life result in data set [5] is reported as “approximately 13 h”. Moreover, the Diameter in data set [6] is 24 nm.

Consider `CCCCCCCC/C=C\CCCCCCCCOC(=O)COCC(=O)O[C@@H](C(=O)O[C@H]1C[C@@]2(O)[C@@H](OC(=O)c3ccccc3)[C@@H]3[C@]4(OC(C)=O)CO[C@@H]4C[C@H](O)[C@@]3(C)C(=O)[C@H](OC(C)=O)C(=C1C)C2(C)C)[C@@H](NC(=O)c1ccccc1)c1ccccc1` [Prodrug 4, 2′-O-(5″-O-oleyldiglycoloyl)-paclitaxel], for which, in data set [4], the “ΔZave 150 mM saline” value is on record as 25 nm, the “ΔZave 300 mM sucrose” value is given as 5 nm and the ΔZave water is 15 nm. Further, the IC50 in data set [1] was found to be 28.4 nM. Besides, the “treatment induced delay in reaching a mean tumor size of 500 mm^3” value in data set [2] (HT29 model, 36 μmol/kg) is listed as 3 days. Moreover, the Diameter in data set [6] is reported as 22 nm. The IC50 in data set [3] worked out at 15.9 ± 0.7 nM.

Take `CC(=O)O[C@H]1C(=O)[C@@]2(C)[C@H]([C@H](OC(=O)c3ccccc3)[C@]3(O)C[C@H](OC(=O)[C@H](OC(=O)COCC(=O)O[C@H]4CC[C@@]5(C)C(=CC[C@H]6[C@@H]7CC[C@H]([C@H](C)CCCC(C)C)[C@@]7(C)CC[C@@H]65)C4)[C@@H](NC(=O)c4ccccc4)c4ccccc4)C(C)=C1C3(C)C)[C@]1(OC(C)=O)CO[C@@H]1C[C@@H]2O` [Prodrug 8, 2′-O-(5″-O-cholesteryldiglycoloyl)-paclitaxel]: in data set [4], the “ΔZave 150 mM saline” value was found to be 42 nm, the “ΔZave 300 mM sucrose” value worked out at 41 nm and the ΔZave water amounted to 47 nm. Also, the IC50 in data set [1] came to 27 ± 1.1 nM. In data set [5], the partitioning half life entry is on record as “approximately 21 h”. The Diameter in data set [6] came to 23 nm. Moreover, the IC50 in data set [3] stood at 24.1 ± 0.6 nM.

In the case of `CCCCCCCCCCCCCC(=O)OC[C@H](COC(=O)COCC(=O)O[C@@H](C(=O)O[C@H]1C[C@@]2(O)[C@@H](OC(=O)c3ccccc3)[C@@H]3[C@]4(OC(C)=O)CO[C@@H]4C[C@H](O)[C@@]3(C)C(=O)[C@H](OC(C)=O)C(=C1C)C2(C)C)[C@@H](NC(=O)c1ccccc1)c1ccccc1)OC(=O)CCCCCCCCCCCCC` [Prodrug 9, 2′-O-(5″-O-(1′″,2′″-dimyristoyl-sn-glycero)diglycoloyl)-paclitaxel], in data set [4], the “ΔZave 150 mM saline” value is given as 171 nm, the “ΔZave 300 mM sucrose” value is on record as 0 nm and the ΔZave water is given as 167 nm. In data set [1], the IC50 turned out to be 34.7 ± 1.3 nM. For the same compound, in data set [5], the partitioning half life is 8.5 h. Moreover, in data set [6], the Diameter stood at 23 nm. Further, the IC50 in data set [3] was found to be 32.2 ± 1.3 nM.

For the origin of these results see US8486924B2, “Taxane delivery system” (Celator Pharmaceuticals, Inc., priority 2007, dated 2013).
